Laboratory results as given in patent EP2964612B1, “P[…] AND THEIR USE AS FLUORESCENT LABELS” (Illumina Cambridge Limited, priority 2013, dated 2014).

Biological target: T1, Pol 957 EA (Thermococcus sp., UniProt Q56366)
T1 sequence (Q56366 1-775): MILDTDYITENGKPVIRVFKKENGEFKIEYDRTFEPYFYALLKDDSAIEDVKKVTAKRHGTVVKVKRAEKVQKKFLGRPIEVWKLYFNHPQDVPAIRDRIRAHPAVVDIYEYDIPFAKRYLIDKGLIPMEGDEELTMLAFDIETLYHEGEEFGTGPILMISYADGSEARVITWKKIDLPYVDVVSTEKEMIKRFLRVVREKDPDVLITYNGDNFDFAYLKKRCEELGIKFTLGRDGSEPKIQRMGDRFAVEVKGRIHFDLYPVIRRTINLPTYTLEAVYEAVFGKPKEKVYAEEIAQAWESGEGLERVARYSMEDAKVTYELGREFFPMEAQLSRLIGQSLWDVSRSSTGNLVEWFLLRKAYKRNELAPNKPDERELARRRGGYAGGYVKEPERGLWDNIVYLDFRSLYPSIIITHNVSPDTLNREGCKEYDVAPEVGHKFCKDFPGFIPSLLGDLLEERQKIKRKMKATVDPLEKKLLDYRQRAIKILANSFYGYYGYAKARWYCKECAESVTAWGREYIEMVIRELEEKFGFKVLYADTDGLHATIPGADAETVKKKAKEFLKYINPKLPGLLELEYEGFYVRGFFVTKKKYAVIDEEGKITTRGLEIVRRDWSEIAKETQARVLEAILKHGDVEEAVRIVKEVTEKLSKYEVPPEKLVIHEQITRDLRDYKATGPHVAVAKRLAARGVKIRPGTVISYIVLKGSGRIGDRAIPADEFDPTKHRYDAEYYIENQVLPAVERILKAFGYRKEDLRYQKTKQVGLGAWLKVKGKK
Test: Binding affinity of labelled 3'-azidomethylthymidine triphosphates to the polymerase (Table 2)

For `Cc1cn([C@H]2C[C@H](OCN=[N+]=[N-])[C@@H](COP(=O)(O)OP(=O)(O)OP(=O)(O)O)O2)c(=O)[nH]c1=O` [Dark ffT], the Kd was 550 nM.
